Experimental data from patent US9394328B2, “Crystalline dapagliflozin hydrate” (SANDOZ AG, priority 2011, dated 2016).

Method: The measurements were carried out with a Bruker D8 Advance powder X-ray diffractometer using Cu Kα radiation in the Bragg-Brentano reflection geometry. Generally, the 2θ values are accurate within an error of ±0.1-0.2°. The relative peak intensities can vary considerably for different samples of the same crystalline form because of different preferred orientations of the crystals. The samples were prepared without any special treatment other than the application of slight pressure to get a flat surface. Silicon single crystal sample holders of either 0.5 mm or 0.1 mm depth and 12 mm cavity diameter were used. The tube voltage and current were 40 kV and 40 mA, respectively. The X-ray diffractometer is equipped with a LynxEye detector. A variable divergence slight was used with a 3° window. The step size was 0.02° 20 with a step time of 37 seconds. The samples were rotated at 0.5 rps during the measurement.
Thermogravimetry coupled with Fourier Transform Infrared Spectroscopy (TG-FTIR): TG-FTIR was performed on a Netzsch Thermo-Microbalance TG 209, which is coupled to a Bruker FT-IR Spectrometer Vector 22. The measurements were carried out with aluminum crucibles with a micro pinhole under a nitrogen atmosphere and at a heating rate of 10° C./min over the range 25-250° C.
145 mg of crystalline hydrate form A according to example 4 is stored under a relative humidity of 60% (in an open container) for two weeks. Then the stored sample is investigated by PXRD and TG-FTIR.

CCOc1ccc(Cc2cc([C@@H]3O[C@H](CO)[C@@H](O)[C@H](O)[C@H]3O)ccc2Cl)cc1 [form A, dapagliflozin]
TG-FTIR mass loss attributable to loss of water (after storage at relative humidity of 60% for two weeks): about 9%
Water content in equilibrium with a water activity of about 0.6 (concluded from TG-FTIR mass loss): about 2 mol water per mol dapagliflozin
Crystalline form after storage (PXRD) (stored under a relative humidity of 60% (open container) for two weeks): form A is retained
